Assay type in all cases: functional
One test has as its system Bacillus subtilis. In words: Antibacterial activity against Bacillus subtilis ATCC 6633 after 24 hrs by serial dilution method.
A further test relates to Staphylococcus aureus. Put plainly: Antibacterial activity against Staphylococcus aureus ATCC 25923 after 24 hrs by serial dilution method.
In a further test the test system is Escherichia coli. Put plainly: Antibacterial activity against Escherichia coli ATCC 23556 after 24 hrs by serial dilution method.
A further test relates to Pseudomonas aeruginosa. In words: Antibacterial activity against Pseudomonas aeruginosa ATCC 10145 after 24 hrs by serial dilution method.
The test system of another test is Candida albicans. In words: Antifungal activity against Candida albicans after 48 hrs by serial dilution method.
Another test deals with Nakaseomyces glabratus. In words: Antifungal activity against Candida glabrata after 48 hrs by serial dilution method.
For the next test, the system named is Pichia kudriavzevii. In words: Antifungal activity against Candida krusei ATCC 6258 after 48 hrs by serial dilution method. Particulars: ATCC 6258, 48 h.

Converted amounts (≈) assume the structure as drawn.

For orientation: MIC means the least concentration at which growth counts as inhibited. Low values mean greater potency, high ones weaker potency. `O=C(Nc1ccc2oc(Cc3ccccc3)nc2c1)c1ccccc1`: the MIC stood at 50 µg/mL (≈ 152 µM) with Bacillus subtilis (ATCC 6633, 24 h); 200 µg/mL (≈ 609 µM) in the test on Staphylococcus aureus (ATCC 25923, 24 h); 100 µg/mL (≈ 305 µM) in the test with Escherichia coli (ATCC 23556, 24 h); 100 µg/mL (≈ 305 µM) in the test on Pseudomonas aeruginosa (ATCC 10145, 24 h); 50 µg/mL (≈ 152 µM) against Candida albicans; 25 µg/mL (≈ 76.1 µM) in the test with Nakaseomyces glabratus. Besides, it took 12.5 µg/mL (≈ 38.1 µM) to inhibit growth with Pichia kudriavzevii (MIC).
In the case of `O=C(Nc1ccc2oc(Cc3ccccc3)nc2c1)c1ccc(Br)cc1`, the MIC against Bacillus subtilis (ATCC 6633, 24 h) was determined as 50 µg/mL (≈ 123 µM); in the test with Staphylococcus aureus (ATCC 25923, 24 h), 50 µg/mL (≈ 123 µM); in the test with Escherichia coli (ATCC 23556, 24 h), 50 µg/mL (≈ 123 µM); in the test on Pseudomonas aeruginosa (ATCC 10145, 24 h), 25 µg/mL (≈ 61.4 µM); with Candida albicans it was 25 µg/mL (≈ 61.4 µM); in the test on Nakaseomyces glabratus it was 25 µg/mL (≈ 61.4 µM). In addition, the MIC with Pichia kudriavzevii stood at 25 µg/mL (≈ 61.4 µM).
As to `Cc1ccc(C)c(C(=O)Nc2ccc3oc(Cc4ccc(Cl)cc4)nc3c2)c1`, the MIC in the test on Bacillus subtilis (ATCC 6633, 24 h) is 12.5 µg/mL (≈ 32 µM); in the test with Staphylococcus aureus (ATCC 25923, 24 h) it was 50 µg/mL (≈ 128 µM); with Escherichia coli (ATCC 23556, 24 h), 12.5 µg/mL (≈ 32 µM); against Pseudomonas aeruginosa (ATCC 10145, 24 h), 50 µg/mL (≈ 128 µM); with Candida albicans, 6.25 µg/mL (≈ 16 µM); in the test with Nakaseomyces glabratus, 25 µg/mL (≈ 64 µM). Also, the MIC in the test with Pichia kudriavzevii is 12.5 µg/mL (≈ 32 µM).
As to `O=C(Cc1ccc(Br)cc1)Nc1ccc2oc(Cc3ccccc3)nc2c1`, the minimal inhibitory concentration (MIC) amounted to 25 µg/mL (≈ 59.3 µM) with Bacillus subtilis (ATCC 6633, 24 h); 25 µg/mL (≈ 59.3 µM) with Staphylococcus aureus (ATCC 25923, 24 h); 25 µg/mL (≈ 59.3 µM) with Escherichia coli (ATCC 23556, 24 h); 25 µg/mL (≈ 59.3 µM) in the test with Pseudomonas aeruginosa (ATCC 10145, 24 h); 25 µg/mL (≈ 59.3 µM) in the test with Candida albicans; 3.12 µg/mL (≈ 7.41 µM) with Nakaseomyces glabratus. The compound also gave an MIC against Pichia kudriavzevii of 12.5 µg/mL (≈ 29.7 µM).
Consider `O=C(Nc1ccc2oc(Cc3ccccc3)nc2c1)c1ccc([N+](=O)[O-])cc1`, for which the MIC in the test on Bacillus subtilis (ATCC 6633, 24 h) is 25 µg/mL (≈ 67 µM); in the test on Staphylococcus aureus (ATCC 25923, 24 h), 50 µg/mL (≈ 134 µM); against Escherichia coli (ATCC 23556, 24 h) it was 100 µg/mL (≈ 268 µM); in the test with Pseudomonas aeruginosa (ATCC 10145, 24 h), 25 µg/mL (≈ 67 µM); against Candida albicans, 12.5 µg/mL (≈ 33.5 µM); against Nakaseomyces glabratus, 12.5 µg/mL (≈ 33.5 µM). For the same compound, the lowest concentration to inhibit growth in the test with Pichia kudriavzevii (MIC) was 12.5 µg/mL (≈ 33.5 µM).
With GENTAMICIN, the MIC with Bacillus subtilis is 1.56 µg/mL; in the test with Staphylococcus aureus, 3.12 µg/mL; against Escherichia coli, 12.5 µg/mL; with Pseudomonas aeruginosa, 12.5 µg/mL.
As for `CCc1ccc(C(=O)Nc2ccc3oc(Cc4ccc(Cl)cc4)nc3c2)cc1`, the MIC stood at 50 µg/mL (≈ 128 µM) in the test with Bacillus subtilis (ATCC 6633, 24 h); 50 µg/mL (≈ 128 µM) against Staphylococcus aureus (ATCC 25923, 24 h); 50 µg/mL (≈ 128 µM) with Escherichia coli (ATCC 23556, 24 h); 50 µg/mL (≈ 128 µM) in the test with Pseudomonas aeruginosa (ATCC 10145, 24 h); 25 µg/mL (≈ 64 µM) in the test on Candida albicans; 25 µg/mL (≈ 64 µM) in the test with Nakaseomyces glabratus. This compound also showed an MIC against Pichia kudriavzevii of 25 µg/mL (≈ 64 µM).
In the case of `Cc1ccc(C)c(C(=O)Nc2ccc3oc(Cc4ccccc4)nc3c2)c1`, the MIC with Bacillus subtilis (ATCC 6633, 24 h) was determined as 25 µg/mL (≈ 70.1 µM); against Staphylococcus aureus (ATCC 25923, 24 h) it was 50 µg/mL (≈ 140 µM); against Escherichia coli (ATCC 23556, 24 h), 50 µg/mL (≈ 140 µM); against Pseudomonas aeruginosa (ATCC 10145, 24 h) it was 50 µg/mL (≈ 140 µM); in the test on Candida albicans, 25 µg/mL (≈ 70.1 µM); against Nakaseomyces glabratus, 25 µg/mL (≈ 70.1 µM). Inhibition of growth in the test with Pichia kudriavzevii (MIC) required 25 µg/mL (≈ 70.1 µM).
Regarding `CC(C)(C)c1ccc(C(=O)Nc2ccc3oc(Cc4ccc(Cl)cc4)nc3c2)cc1`, the MIC worked out at 50 µg/mL (≈ 119 µM) against Bacillus subtilis (ATCC 6633, 24 h); 25 µg/mL (≈ 59.7 µM) with Staphylococcus aureus (ATCC 25923, 24 h); 50 µg/mL (≈ 119 µM) against Escherichia coli (ATCC 23556, 24 h); 50 µg/mL (≈ 119 µM) in the test on Pseudomonas aeruginosa (ATCC 10145, 24 h); 50 µg/mL (≈ 119 µM) against Candida albicans; 50 µg/mL (≈ 119 µM) against Nakaseomyces glabratus. Besides, the MIC against Pichia kudriavzevii stood at 50 µg/mL (≈ 119 µM).
Regarding `O=C(Cc1ccc(F)cc1)Nc1ccc2oc(Cc3ccc(Cl)cc3)nc2c1`, the MIC is 100 µg/mL (≈ 253 µM) against Bacillus subtilis (ATCC 6633, 24 h); 12.5 µg/mL (≈ 31.7 µM) against Staphylococcus aureus (ATCC 25923, 24 h); 50 µg/mL (≈ 127 µM) against Escherichia coli (ATCC 23556, 24 h); 25 µg/mL (≈ 63.3 µM) in the test with Pseudomonas aeruginosa (ATCC 10145, 24 h); 50 µg/mL (≈ 127 µM) against Candida albicans; 50 µg/mL (≈ 127 µM) in the test with Nakaseomyces glabratus. Also, in the test with Pichia kudriavzevii, 25 µg/mL (≈ 63.3 µM) was the least that counted as inhibitory (MIC).
For the compound `CN[C@@H]1[C@H](O[C@H]2[C@H](O[C@H]3[C@H](O)[C@@H](O)[C@H](N=C(N)N)[C@@H](O)[C@@H]3N=C(N)N)O[C@@H](C)[C@]2(O)C=O)O[C@@H](CO)[C@H](O)[C@H]1O` (stereo in doubt) [STREPTOMYCIN], the MIC amounted to 50 µg/mL (≈ 86 µM) in the test on Bacillus subtilis (ATCC 6633, 24 h); 3.12 µg/mL (≈ 5.36 µM) in the test with Staphylococcus aureus (ATCC 25923, 24 h); 1.56 µg/mL (≈ 2.68 µM) against Escherichia coli (ATCC 23556, 24 h); 100 µg/mL (≈ 172 µM) in the test with Pseudomonas aeruginosa (ATCC 10145, 24 h); 13 µg/mL (≈ 22.4 µM) in the test with Nakaseomyces glabratus.
`Cc1ccc(C(=O)Nc2ccc3oc(Cc4ccccc4)nc3c2)s1`: the MIC in the test on Bacillus subtilis (ATCC 6633, 24 h) came out at 25 µg/mL (≈ 71.8 µM); against Staphylococcus aureus (ATCC 25923, 24 h) it was 25 µg/mL (≈ 71.8 µM); with Escherichia coli (ATCC 23556, 24 h) it was 25 µg/mL (≈ 71.8 µM); in the test on Pseudomonas aeruginosa (ATCC 10145, 24 h) it was 25 µg/mL (≈ 71.8 µM); against Candida albicans, 12.5 µg/mL (≈ 35.9 µM); in the test on Nakaseomyces glabratus, 6.25 µg/mL (≈ 17.9 µM). In the test with Pichia kudriavzevii, this compound registered an MIC of 6.25 µg/mL (≈ 17.9 µM).
As to `O=C(CSc1ccccc1)Nc1ccc2oc(Cc3ccccc3)nc2c1`, the MIC against Bacillus subtilis (ATCC 6633, 24 h) was determined as 50 µg/mL (≈ 134 µM); with Staphylococcus aureus (ATCC 25923, 24 h) it was 100 µg/mL (≈ 267 µM); with Escherichia coli (ATCC 23556, 24 h), 50 µg/mL (≈ 134 µM); against Pseudomonas aeruginosa (ATCC 10145, 24 h) it was 25 µg/mL (≈ 66.8 µM); in the test on Candida albicans, 25 µg/mL (≈ 66.8 µM); against Nakaseomyces glabratus it was 25 µg/mL (≈ 66.8 µM). In addition, inhibition of growth against Pichia kudriavzevii (MIC) required 25 µg/mL (≈ 66.8 µM).
On to `O=C(Nc1ccc2oc(Cc3ccc(Cl)cc3)nc2c1)c1ccc([N+](=O)[O-])cc1`, for which the MIC in the test on Bacillus subtilis (ATCC 6633, 24 h) was 50 µg/mL (≈ 123 µM); in the test on Staphylococcus aureus (ATCC 25923, 24 h) it was 100 µg/mL (≈ 245 µM); against Escherichia coli (ATCC 23556, 24 h), 25 µg/mL (≈ 61.3 µM); against Pseudomonas aeruginosa (ATCC 10145, 24 h) it was 25 µg/mL (≈ 61.3 µM); with Candida albicans, 50 µg/mL (≈ 123 µM); in the test with Nakaseomyces glabratus it was 25 µg/mL (≈ 61.3 µM). In the test with Pichia kudriavzevii, this compound gave an MIC of 25 µg/mL (≈ 61.3 µM).
For the compound `O=C(Nc1ccc2oc(Cc3ccc(Cl)cc3)nc2c1)c1ccc(F)cc1`, the MIC in the test with Bacillus subtilis (ATCC 6633, 24 h) was determined as 25 µg/mL (≈ 65.7 µM); in the test with Staphylococcus aureus (ATCC 25923, 24 h), 50 µg/mL (≈ 131 µM); with Escherichia coli (ATCC 23556, 24 h), 25 µg/mL (≈ 65.7 µM); with Pseudomonas aeruginosa (ATCC 10145, 24 h), 50 µg/mL (≈ 131 µM); in the test on Candida albicans, 12.5 µg/mL (≈ 32.8 µM); in the test with Nakaseomyces glabratus it was 12.5 µg/mL (≈ 32.8 µM). In addition, the lowest concentration to inhibit growth against Pichia kudriavzevii (MIC) was 12.5 µg/mL (≈ 32.8 µM).
As to `O=C(Cc1ccc([N+](=O)[O-])cc1)Nc1ccc2oc(Cc3ccccc3)nc2c1`, the MIC was determined as 50 µg/mL (≈ 129 µM) with Bacillus subtilis (ATCC 6633, 24 h); 50 µg/mL (≈ 129 µM) with Staphylococcus aureus (ATCC 25923, 24 h); 50 µg/mL (≈ 129 µM) in the test with Escherichia coli (ATCC 23556, 24 h); 25 µg/mL (≈ 64.5 µM) in the test on Pseudomonas aeruginosa (ATCC 10145, 24 h); 25 µg/mL (≈ 64.5 µM) against Candida albicans; 25 µg/mL (≈ 64.5 µM) against Nakaseomyces glabratus. The MIC in the test with Pichia kudriavzevii amounted to 25 µg/mL (≈ 64.5 µM).

For the origin of these results see ChEMBL document CHEMBL1147878, “Synthesis and in vitro antimicrobial activity of new 2-[p-substituted-benzyl]-5-[substituted-carbonylamino]benzoxazoles” (2007).
